pIC50: −log10 of the molar value. *1 amine or outer side, *2 acyl side, *3 side chain or, on linkers, in order; H or OH if unused. Where a SMILES comes first, the peptide text is derived from it. Bridges are numbered along the chain shown (N, C = ends). [ ]: non-standard residue; d: D form. The star is where a group is joined. hPhe(3-Cl-4-CF3) = N[C@@H](CCc1ccc(C(F)(F)F)c(Cl)c1)C(=O)O; X19 = O=C([C@H](Cc1ccc(C(F)(F)F)cc1)N(CCCF)[*:1])[*:2]; X45 = CCCN([C@@H](CC1CCC(F)(F)CC1)C(=O)[*:2])[*:1]; NMeGly(cPent) = CN[C@H](C(=O)O)C1CCCC1; NMeD = CN[C@@H](CC(=O)O)C(=O)O; NMeL = CN[C@@H](CC(C)C)C(=O)O; Morpholide = C1CN(*)CCO1; NMeA = CN[C@@H](C)C(=O)O; Ac5c = NC1(C(=O)O)CCCC1; Aze = O=C(O)[C@@H]1CCN1; Sar = CNCC(=O)O
What was measured:
[1] = molecular target: GDP-bound NRAS wild-type protein (Homo sapiens, UniProt P01111); assay: Binding to NRAS by surface plasmon resonance (SPR), KD and KD ratio to KRAS; conditions: ratio of the KD value with respect to GDP-bound NRAS wild-type protein to the KD value with respect to KRAS
Chain of GDP-bound NRAS wild-type protein (P01111 whole entry): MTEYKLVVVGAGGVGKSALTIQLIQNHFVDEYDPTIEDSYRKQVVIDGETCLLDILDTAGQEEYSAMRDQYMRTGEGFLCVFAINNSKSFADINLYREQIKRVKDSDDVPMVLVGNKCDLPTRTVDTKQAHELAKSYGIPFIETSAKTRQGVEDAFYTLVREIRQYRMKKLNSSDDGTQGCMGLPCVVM
Outline: (§1)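 Measured at 30°C: SPR with GDP-loaded, E. coli-expressed biotin-Avi RAS captured (~100–300 RU), ascending 75 s compound injections, HBS pH 7.4 with GDP, MgCl2, 4% DMSO. KD from 1:1 fit.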

[2] = molecular target: HRAS wild-type protein (Homo sapiens, UniProt P01112); assay: Binding to HRAS by surface plasmon resonance (SPR), KD and KD ratio to KRAS; conditions: ratio of the KD value with respect to HRAS wild-type protein to the KD value with respect to KRAS
Chain of HRAS wild-type protein (P01112 whole entry): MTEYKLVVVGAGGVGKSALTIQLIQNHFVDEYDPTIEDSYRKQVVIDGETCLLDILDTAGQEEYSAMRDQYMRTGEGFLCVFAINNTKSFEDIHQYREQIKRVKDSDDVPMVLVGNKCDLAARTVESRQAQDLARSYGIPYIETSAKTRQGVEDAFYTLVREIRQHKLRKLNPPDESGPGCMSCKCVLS
Outline: as §1

[3] = test system: human lung cancer strain NCI-H441; type: cell-based
Outline: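 Signal came from […] measured per well once the reagent was added. Beforehand, cells were cultured at 37°C and 5% carbon dioxide on a compound series serially diluted in dimethyl sulfoxide.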

CC[C@H](C)[C@@H]1NC(=O)[C@H](CC(C)C)N(C)C(=O)C[C@@H](C(=O)N(C)C)N(C)C(=O)[C@H](C2CCCC2)N(C)C(=O)C2(CCCC2)NC(=O)[C@@H]2CCCN2C(=O)[C@H](CCc2cc(F)c(C(F)(F)F)c(F)c2)NC(=O)CN(C)C(=O)[C@H](Cc2ccc(C(F)(F)F)cc2)N2CCCCC[C@@H](C2=O)N(C)C(=O)CN(C)C1=O [PP0507]
NRAS /KRAS [1]: B (a compound having 3 or more and less than 10 is denoted as B) | HRAS /KRAS [2]: B (a compound having 3 or more and less than 10 is denoted as B) | pIC50 [3]: 7.21

CC[C@H](C)[C@@H]1NC(=O)[C@H](CC(C)C)N(C)C(=O)C[C@@H](C(=O)N2CCCC2)N(C)C(=O)[C@H](C2CCCC2)N(C)C(=O)C2(CCCC2)NC(=O)[C@@H]2CCCN2C(=O)[C@H](CCc2cc(F)c(C(F)(F)F)c(F)c2)NC(=O)CN(C)C(=O)[C@H](Cc2ccc(C(F)(F)F)cc2)N2CCCCC[C@@H](C2=O)N(C)C(=O)CN(C)C1=O [PP0509]
NRAS /KRAS [1]: B (a compound having 3 or more and less than 10 is denoted as B) | HRAS /KRAS [2]: B (a compound having 3 or more and less than 10 is denoted as B) | pIC50 [3]: 6.96

CC[C@H](C)[C@@H]1NC(=O)[C@H](CC(C)C)N(C)C(=O)C[C@@H](C(=O)N2CCCCC2)N(C)C(=O)[C@H](C2CCCC2)N(C)C(=O)C2(CCCC2)NC(=O)[C@@H]2CCCN2C(=O)[C@H](CCc2cc(F)c(C(F)(F)F)c(F)c2)NC(=O)CN(C)C(=O)[C@H](Cc2ccc(C(F)(F)F)cc2)N2CCCCC[C@@H](C2=O)N(C)C(=O)CN(C)C1=O [PP0510]
NRAS /KRAS [1]: B (a compound having 3 or more and less than 10 is denoted as B) | HRAS /KRAS [2]: B (a compound having 3 or more and less than 10 is denoted as B) | pIC50 [3]: 6.41

CC[C@H](C)[C@@H]1NC(=O)[C@H](CC(C)C)N(C)C(=O)C[C@@H](C(=O)N(C)C)N(C)C(=O)[C@H](C2CCCC2)N(C)C(=O)C2(CCC2)NC(=O)[C@@H]2CCCN2C(=O)[C@H](CCc2cc(F)c(C(F)(F)F)c(F)c2)NC(=O)CN(C)C(=O)[C@H](Cc2ccc(C(F)(F)F)cc2)N2CCCCC[C@@H](C2=O)N(C)C(=O)CN(C)C1=O [PP0512]
NRAS /KRAS [1]: B (a compound having 3 or more and less than 10 is denoted as B) | HRAS /KRAS [2]: B (a compound having 3 or more and less than 10 is denoted as B) | pIC50 [3]: 7.53

CC[C@H](C)[C@@H]1NC(=O)[C@H](CC(C)C)N(CC)C(=O)C[C@@H](C(=O)N2CCOCC2)N(C)C(=O)[C@H](C2CCCC2)N(C)C(=O)C2(CCCC2)NC(=O)[C@@H]2CCCN2C(=O)[C@H](CCc2cc(F)c(C(F)(F)F)c(F)c2)NC(=O)CN(C)C(=O)[C@H](Cc2ccc(C(F)(F)F)cc2)N2CCCCC[C@@H](C2=O)N(C)C(=O)CN(C)C1=O [PP0513]
NRAS /KRAS [1]: B (a compound having 3 or more and less than 10 is denoted as B) | HRAS /KRAS [2]: B (a compound having 3 or more and less than 10 is denoted as B) | pIC50 [3]: 6.62

CC[C@H](C)[C@@H]1NC(=O)[C@H](CC(C)C)N(C)C(=O)C[C@@H](C(=O)N(C)C)N(C)C(=O)[C@H](C2CCCC2)N(C)C(=O)C2(CCCC2)NC(=O)[C@@H]2CCCN2C(=O)[C@H](CCc2cc(F)c(C(F)(F)F)c(F)c2)NC(=O)CN(C)C(=O)[C@H](Cc2ccc(C(F)(F)F)cc2)N2CCCCC[C@@H](C2=O)N(C)C(=O)CN(CC)C1=O [PP0514]
NRAS /KRAS [1]: B (a compound having 3 or more and less than 10 is denoted as B) | HRAS /KRAS [2]: B (a compound having 3 or more and less than 10 is denoted as B) | pIC50 [3]: 6.51

CC[C@H](C)[C@@H]1NC(=O)[C@H](CC(C)C)N(C)C(=O)C[C@@H](C(=O)N2CCOCC2)N(C)C(=O)[C@H](C2CCCC2)N(C)C(=O)C2(CCCC2)NC(=O)[C@H](C)N(CC)C(=O)[C@H](CCc2cc(F)c(C(F)(F)F)c(F)c2)NC(=O)CN(C)C(=O)[C@H](Cc2ccc(C(F)(F)F)cc2)N2CCCCC[C@@H](C2=O)N(C)C(=O)CN(C)C1=O [PP0515]
NRAS /KRAS [1]: B (a compound having 3 or more and less than 10 is denoted as B) | HRAS /KRAS [2]: B (a compound having 3 or more and less than 10 is denoted as B) | pIC50 [3]: 6.20

CC[C@H](C)[C@@H]1NC(=O)[C@H](CC(C)C)NC(=O)C[C@@H](C(=O)N2CCOCC2)N(C)C(=O)[C@H](C2CCCC2)N(C)C(=O)C2(CCCC2)NC(=O)[C@@H]2CCCN2C(=O)[C@H](CCc2cc(F)c(C(F)(F)F)c(F)c2)NC(=O)CN(C)C(=O)[C@H](Cc2ccc(C(F)(F)F)cc2)N2CCCCC[C@@H](C2=O)N(C)C(=O)CN(C)C1=O [PP0516]
NRAS /KRAS [1]: B (a compound having 3 or more and less than 10 is denoted as B) | HRAS /KRAS [2]: B (a compound having 3 or more and less than 10 is denoted as B) | pIC50 [3]: 6.34

CC[C@H](C)[C@@H]1NC(=O)[C@H](CC(F)(F)F)N(C)C(=O)C[C@@H](C(=O)N2CCOCC2)N(C)C(=O)[C@H](C2CCCC2)N(C)C(=O)C2(CCCC2)NC(=O)[C@@H]2CCCN2C(=O)[C@H](CCc2cc(F)c(C(F)(F)F)c(F)c2)NC(=O)CN(C)C(=O)[C@H](Cc2ccc(C(F)(F)F)cc2)N2CCCCC[C@@H](C2=O)N(C)C(=O)CN(C)C1=O [PP0520]
NRAS /KRAS [1]: B (a compound having 3 or more and less than 10 is denoted as B) | HRAS /KRAS [2]: B (a compound having 3 or more and less than 10 is denoted as B) | pIC50 [3]: 7.77

CC[C@H](C)[C@@H]1NC(=O)[C@@H]2CCCCCN2C(=O)C[C@@H](C(=O)N2CCOCC2)N(C)C(=O)[C@H](C2CCCC2)N(C)C(=O)C2(CCCC2)NC(=O)[C@@H]2CCCN2C(=O)[C@H](CCc2cc(F)c(C(F)(F)F)c(F)c2)NC(=O)CN(C)C(=O)[C@H](Cc2ccc(C(F)(F)F)cc2)N2CCCCC[C@@H](C2=O)N(C)C(=O)CN(C)C1=O [PP0521]
NRAS /KRAS [1]: B (a compound having 3 or more and less than 10 is denoted as B) | HRAS /KRAS [2]: B (a compound having 3 or more and less than 10 is denoted as B) | pIC50 [3]: 6.23

CC(C)C[C@H]1C(=O)N[C@@H](C2CCC2)C(=O)N(C)CC(=O)N(C)[C@H]2CCCCCN(C2=O)[C@@H](Cc2ccc(C(F)(F)F)cc2)C(=O)N(C)CC(=O)N[C@@H](CCc2cc(F)c(C(F)(F)F)c(F)c2)C(=O)N2CCC[C@H]2C(=O)NC2(CCCC2)C(=O)N(C)[C@@H](C2CCCC2)C(=O)N(C)[C@H](C(=O)N2CCOCC2)CC(=O)N1C [PP0522]
NRAS /KRAS [1]: B (a compound having 3 or more and less than 10 is denoted as B) | HRAS /KRAS [2]: B (a compound having 3 or more and less than 10 is denoted as B) | pIC50 [3]: 7.08

CCC(CC)[C@@H]1NC(=O)[C@H](CC(C)C)N(C)C(=O)C[C@@H](C(=O)N2CCOCC2)N(C)C(=O)[C@H](C2CCCC2)N(C)C(=O)C2(CCCC2)NC(=O)[C@@H]2CCCN2C(=O)[C@H](CCc2cc(F)c(C(F)(F)F)c(F)c2)NC(=O)CN(C)C(=O)[C@H](Cc2ccc(C(F)(F)F)cc2)N2CCCCC[C@@H](C2=O)N(C)C(=O)CN(C)C1=O [PP0523]
NRAS /KRAS [1]: A (a compound having 10 or more and less than 20 is denoted as A) | HRAS /KRAS [2]: B (a compound having 3 or more and less than 10 is denoted as B) | pIC50 [3]: 6.13

CC[C@H](C)[C@@H]1NC(=O)[C@H](CC(C)C)N(C)C(=O)C[C@@H](C(=O)N2CCOCC2)N(C)C(=O)[C@H](C2CCCC2)N(C)C(=O)C2(CCCC2)NC(=O)[C@@H]2CCCN2C(=O)[C@H](CCc2ccc(C(F)(F)F)c(Cl)c2)NC(=O)CN(C)C(=O)[C@H](Cc2ccc(C(F)(F)F)cc2)N(CCCF)C(=O)CN(C)C(=O)CN(C)C1=O [PP0524] ([NMeL]I[Sar][Sar][X19][Sar][hPhe(3-Cl-4-CF3)]P[Ac5c][NMeGly(cPent)][NMeD]-Morpholide; lactam N-11)
NRAS /KRAS [1]: B (a compound having 3 or more and less than 10 is denoted as B) | HRAS /KRAS [2]: C (A compound having a KD ratio of 0.1 or more and less than 3 is denoted as C) | pIC50 [3]: 8.32

CC[C@H](C)[C@@H]1NC(=O)[C@H](CC(C)C)N(C)C(=O)C[C@@H](C(=O)N2CCOCC2)N(C)C(=O)[C@H](C2CCCC2)N(C)C(=O)C2(CCCC2)NC(=O)[C@@H]2CCCN2C(=O)[C@H](CCc2ccc(C(F)(F)F)c(Cl)c2)NC(=O)CN(C)C(=O)[C@H](Cc2ccc(C(F)(F)F)cc2)N(CCCF)C(=O)[C@@H]2CCN2C(=O)[C@H](C)N(C)C1=O [PP0525] ([NMeL]I[NMeA][Aze][X19][Sar][hPhe(3-Cl-4-CF3)]P[Ac5c][NMeGly(cPent)][NMeD]-Morpholide; lactam N-11)
NRAS /KRAS [1]: C (A compound having a KD ratio of 0.1 or more and less than 3 is denoted as C) | HRAS /KRAS [2]: B (a compound having 3 or more and less than 10 is denoted as B) | pIC50 [3]: 8.68

CCCN1C(=O)CN(C)C(=O)CN(C)C(=O)[C@H]([C@@H](C)CC)NC(=O)[C@H](CC(C)C)N(C)C(=O)C[C@@H](C(=O)N2CCOCC2)N(C)C(=O)[C@H](C2CCCC2)N(C)C(=O)C2(CCCC2)NC(=O)[C@@H]2CCCN2C(=O)[C@H](CCc2ccc(C(F)(F)F)c(Cl)c2)NC(=O)CN(C)C(=O)[C@@H]1CC1CCC(F)(F)CC1 [PP0526] ([NMeL]I[Sar][Sar][X45][Sar][hPhe(3-Cl-4-CF3)]P[Ac5c][NMeGly(cPent)][NMeD]-Morpholide; lactam N-11)
NRAS /KRAS [1]: B (a compound having 3 or more and less than 10 is denoted as B) | HRAS /KRAS [2]: C (A compound having a KD ratio of 0.1 or more and less than 3 is denoted as C) | pIC50 [3]: 8.18

CCCN1C(=O)[C@@H]2CCN2C(=O)[C@H](C)N(C)C(=O)[C@H]([C@@H](C)CC)NC(=O)[C@H](CC(C)C)N(C)C(=O)C[C@@H](C(=O)N2CCOCC2)N(C)C(=O)[C@H](C2CCCC2)N(C)C(=O)C2(CCCC2)NC(=O)[C@@H]2CCCN2C(=O)[C@H](CCc2ccc(C(F)(F)F)c(Cl)c2)NC(=O)CN(C)C(=O)[C@@H]1CC1CCC(F)(F)CC1 [PP0527] ([NMeL]I[NMeA][Aze][X45][Sar][hPhe(3-Cl-4-CF3)]P[Ac5c][NMeGly(cPent)][NMeD]-Morpholide; lactam N-11)
NRAS /KRAS [1]: C (A compound having a KD ratio of 0.1 or more and less than 3 is denoted as C) | HRAS /KRAS [2]: C (A compound having a KD ratio of 0.1 or more and less than 3 is denoted as C) | pIC50 [3]: 8.24
